Measured values reported in ChEMBL document CHEMBL1143532 (Bioorg Med Chem Lett, 2005).

How the values were obtained:
[1] = target: Neuronal acetylcholine receptor; alpha4/beta2 (Homo sapiens, UniProt P17787+P43681); experiment: Binding affinity towards Nicotinic acetylcholine receptor alpha4-beta2; Not significant; format: protein complex
[2] = target: T1, Neuronal acetylcholine receptor subunit alpha-7 (Rattus norvegicus, UniProt Q05941); experiment: Inhibitory constant against [3H]methyllycaconitine binding towards Nicotinic acetylcholine receptor alpha-7 of rat brain hippocampus; format: tissue-based
[3] = target: T1, Neuronal acetylcholine receptor subunit alpha-7; experiment: Potency against rat nicotinic acetylcholine alpha-7 subunit expressed in Xenopus oocytes as current activation; format: functional, cell-based, Oocyte
[4] = target: Neuronal acetylcholine receptor subunit alpha-7 (Rattus norvegicus) (UniProt Q05941); experiment: Intrinsic activity against rat nicotinic acetylcholine alpha-7 subunit expressed in Xenopus oocytes as current activation; format: functional, cell-based; settings: Oocyte
Sequence of Neuronal acetylcholine receptor subunit alpha-7 (Rattus norvegicus) (Q05941 whole entry): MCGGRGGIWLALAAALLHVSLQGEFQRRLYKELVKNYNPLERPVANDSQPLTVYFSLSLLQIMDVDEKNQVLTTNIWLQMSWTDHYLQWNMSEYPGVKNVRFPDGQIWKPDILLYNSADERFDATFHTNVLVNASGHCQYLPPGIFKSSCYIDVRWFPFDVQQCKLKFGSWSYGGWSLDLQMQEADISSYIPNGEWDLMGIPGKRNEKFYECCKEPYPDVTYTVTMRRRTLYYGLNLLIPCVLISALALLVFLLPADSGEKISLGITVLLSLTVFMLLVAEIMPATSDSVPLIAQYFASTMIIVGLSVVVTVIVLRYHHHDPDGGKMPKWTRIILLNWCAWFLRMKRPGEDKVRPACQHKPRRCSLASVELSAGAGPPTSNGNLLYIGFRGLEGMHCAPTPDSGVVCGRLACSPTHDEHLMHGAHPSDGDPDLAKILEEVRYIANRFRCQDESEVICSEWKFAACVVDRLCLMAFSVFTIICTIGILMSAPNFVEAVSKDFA

T1 sequence (Q05941 whole entry): as above
Sequence of Neuronal acetylcholine receptor; alpha4/beta2 (P17787 whole entry): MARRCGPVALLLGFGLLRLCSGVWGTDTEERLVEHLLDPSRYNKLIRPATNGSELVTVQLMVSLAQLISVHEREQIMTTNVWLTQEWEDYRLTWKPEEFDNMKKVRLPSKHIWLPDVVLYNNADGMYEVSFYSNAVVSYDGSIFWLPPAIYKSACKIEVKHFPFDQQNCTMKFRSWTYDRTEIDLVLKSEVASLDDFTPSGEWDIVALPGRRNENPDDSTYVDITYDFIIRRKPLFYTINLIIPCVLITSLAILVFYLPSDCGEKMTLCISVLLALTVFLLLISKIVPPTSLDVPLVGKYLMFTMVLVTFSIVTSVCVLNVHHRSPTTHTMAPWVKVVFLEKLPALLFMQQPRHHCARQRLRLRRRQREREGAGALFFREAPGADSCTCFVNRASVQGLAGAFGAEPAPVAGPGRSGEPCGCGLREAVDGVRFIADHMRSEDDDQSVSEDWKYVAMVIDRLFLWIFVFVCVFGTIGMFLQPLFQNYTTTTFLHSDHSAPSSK
Sequence of Neuronal acetylcholine receptor; alpha4/beta2 (P43681 whole entry): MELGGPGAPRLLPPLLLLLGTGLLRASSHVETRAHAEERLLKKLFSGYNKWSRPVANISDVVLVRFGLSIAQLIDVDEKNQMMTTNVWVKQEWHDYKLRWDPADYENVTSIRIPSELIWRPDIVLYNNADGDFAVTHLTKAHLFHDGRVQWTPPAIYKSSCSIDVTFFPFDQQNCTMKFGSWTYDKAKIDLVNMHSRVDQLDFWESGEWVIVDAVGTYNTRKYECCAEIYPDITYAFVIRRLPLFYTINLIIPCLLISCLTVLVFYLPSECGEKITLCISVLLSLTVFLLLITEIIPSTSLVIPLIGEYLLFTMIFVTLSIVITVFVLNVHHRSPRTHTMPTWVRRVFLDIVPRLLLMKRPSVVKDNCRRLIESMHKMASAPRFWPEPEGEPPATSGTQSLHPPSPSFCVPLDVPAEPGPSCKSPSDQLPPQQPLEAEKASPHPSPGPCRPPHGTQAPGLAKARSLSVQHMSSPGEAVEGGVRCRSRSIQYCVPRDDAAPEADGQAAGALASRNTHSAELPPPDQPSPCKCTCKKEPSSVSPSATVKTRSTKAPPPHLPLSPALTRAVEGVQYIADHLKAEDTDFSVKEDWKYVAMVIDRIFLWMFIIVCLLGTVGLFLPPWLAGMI

Structure (SMILES)	Ki [1] [µM]	Ki [2] [nM]	EC50 [3] [nM]	Imax [4]
COc1ccncc1C[C@@H]1[C@H](OC(=O)Nc2ccc(Br)cc2)C2CCN1CC2	> 10	29		
O=C(Nc1ccc(Br)cc1)O[C@@H]1C2CCN(CC2)[C@@H]1Cc1ccccc1	> 10	838		
O=C(NC1CC1c1ccccc1)N[C@@H]1C2CCN(CC2)[C@@H]1Cc1cccnc1 (some centres not stated)	> 10			
O=C(Nc1ccc(Br)cc1)O[C@@H]1C2CCN(CC2)[C@@H]1Cc1ccsc1	> 10	534		
Cn1cc(C(=O)N[C@@H]2C3CCN(CC3)[C@@H]2Cc2cccnc2)c2ccccc21	> 10	521		
NC(=O)Cc1ccc(S(=O)(=O)N[C@@H]2C3CCN(CC3)[C@@H]2Cc2cccnc2)cc1	> 10	146		
COc1ccc(NC(=O)N[C@@H]2C3CCN(CC3)[C@@H]2Cc2cccnc2)cc1	> 10	37		
O=C(Nc1ccc(F)cc1)N[C@@H]1C2CCN(CC2)[C@@H]1Cc1cccnc1	> 10	74		
CC(C)Oc1cncc(C[C@@H]2[C@H](OC(=O)Nc3ccc(Br)cc3)C3CCN2CC3)c1	> 10	7020		
O=C(N[C@@H]1C2CCN(CC2)[C@@H]1Cc1cccnc1)c1ccc2ccccc2c1O	> 10	1		
O=C(Nc1cccc(F)c1)N[C@@H]1C2CCN(CC2)[C@@H]1Cc1cccnc1	> 10	6		
N#Cc1cccc(NC(=O)N[C@@H]2C3CCN(CC3)[C@@H]2Cc2cccnc2)c1	> 10	170		
O=C(Nc1cccc(Br)c1)N[C@@H]1C2CCN(CC2)[C@@H]1Cc1cccnc1	> 10	52		
O=C(Nc1ccc(Br)cc1)O[C@@H]1C2CCN(CC2)[C@@H]1Cc1cc2ccccc2o1	> 10	8390		
O=C(Nc1cccc(C(F)(F)F)c1)N[C@@H]1C2CCN(CC2)[C@@H]1Cc1cccnc1	> 10	91		
COc1ccc(C[C@@H]2[C@H](OC(=O)Nc3ccc(Br)cc3)C3CCN2CC3)cc1	> 10	> 10000		
O=C(Nc1ccc(Sc2ccccc2)cc1)O[C@@H]1C2CCN(CC2)[C@@H]1Cc1cccnc1	> 10	9		
O=S(=O)(Cc1ccccc1)N[C@@H]1C2CCN(CC2)[C@@H]1Cc1cccnc1	> 10	8840		
O=C(NC1CC1c1ccccc1)O[C@@H]1C2CCN(CC2)[C@@H]1Cc1cccnc1 (some centres not stated)	> 10	103		
O=C(Nc1ccc(Br)cc1)O[C@@H]1C2CCN(CC2)[C@@H]1Cc1cccnc1	> 10			
O=C(N[C@@H]1C2CCN(CC2)[C@@H]1Cc1cccnc1)c1ccc(Sc2ccccc2)cc1	> 10			

Structure (SMILES)	Ki [1] [µM]	Ki [2] [nM]	EC50 [3] [nM]	Imax [4]
O=C(Nc1ccc(Br)cc1)O[C@@H]1C2CCN(CC2)[C@@H]1Cc1cncnc1	> 10	40		
O=C(Nc1ccc(-c2ccccc2)cc1)N[C@@H]1C2CCN(CC2)[C@@H]1Cc1cccnc1	> 10	424		
O=C(Nc1ccc(Oc2ccccc2)cc1)O[C@@H]1C2CCN(CC2)[C@@H]1Cc1cccnc1	> 10	50		
O=C(Nc1ccc(Br)cc1)O[C@@H]1C2CCN(CC2)[C@@H]1Cc1ccccn1	> 10	> 10000		
O=C(Nc1ccc(Sc2ccccc2)cc1)OC1CN2CCC1CC2 (configuration not stated)	> 10	53		
O=C(Nc1ccc(-c2ccccc2)cc1)O[C@@H]1C2CCN(CC2)[C@@H]1Cc1cccnc1	> 10	500		
O=C(Nc1ccc(F)cc1)O[C@@H]1C2CCN(CC2)[C@@H]1Cc1cccnc1	> 10	6		
COc1ccccc1NC(=O)N[C@@H]1C2CCN(CC2)[C@@H]1Cc1cccnc1	> 10	30		
O=C(Nc1ccccc1)OC1CN2CCC1CC2 (configuration not stated)	> 10			
O=C(Nc1ccc(Br)cc1)O[C@@H]1C2CCN(CC2)[C@@H]1Cc1ccc(F)cc1	> 10	263		
O=C(Nc1ccc(Br)cc1)O[C@@H]1C2CCN(CC2)[C@@H]1Cc1ccco1	> 10	234		
COc1ccc(S(=O)(=O)N[C@@H]2C3CCN(CC3)[C@@H]2Cc2cccnc2)cc1	> 10	8920		
O=C(NCc1ccc(Br)cc1)N[C@@H]1C2CCN(CC2)[C@@H]1Cc1cccnc1	> 10	274		
O=C(Nc1ccccc1)N[C@@H]1C2CCN(CC2)[C@@H]1Cc1cccnc1	> 10	16		
CS(=O)(=O)c1ccc(C[C@@H]2[C@H](OC(=O)Nc3ccc(Br)cc3)C3CCN2CC3)cc1	> 10	6780		
O=C(N[C@@H]1C2CCN(CC2)[C@@H]1Cc1cccnc1)c1ccsc1	> 10	790		
O=C(Nc1ccc(Br)cc1)O[C@@H]1C2CCN(CC2)[C@@H]1Cc1cnccc1Oc1ccccc1	> 10	> 10000		
Cn1cccc1C(=O)N[C@@H]1C2CCN(CC2)[C@@H]1Cc1cccnc1	> 10	155		
O=C(N[C@@H]1C2CCN(CC2)[C@@H]1Cc1cccnc1)c1c[nH]c2ccccc12	> 10	8		
O=C(Nc1ccc(Br)cc1)N[C@@H]1C2CCN(CC2)[C@@H]1Cc1cccnc1	> 10	9		
O=C(NCc1ccccc1)O[C@@H]1C2CCN(CC2)[C@@H]1Cc1cccnc1	> 10	670		

Structure (SMILES)	Ki [1] [µM]	Ki [2] [nM]	EC50 [3] [nM]	Imax [4]
COc1ccc(NC(=O)N[C@@H]2C3CCN(CC3)[C@@H]2Cc2cccnc2)c(OC)c1	> 10	31		
COc1cncc(C[C@@H]2[C@H](OC(=O)Nc3ccc(Br)cc3)C3CCN2CC3)c1	> 10	144		
O=C(Nc1ccc(Oc2ccccc2)cc1)N[C@@H]1C2CCN(CC2)[C@@H]1Cc1cccnc1	> 10	16		
O=C(Nc1ccc(Br)cc1)O[C@@H]1C2CCN(CC2)[C@@H]1Cn1ccnc1	> 10	10		
O=S(=O)(N[C@@H]1C2CCN(CC2)[C@@H]1Cc1cccnc1)c1ccccc1	> 10	418		
COc1ccc(NC(=O)O[C@@H]2C3CCN(CC3)[C@@H]2Cc2cccnc2)cc1	> 10	5	300	0.19
O=C(N[C@@H]1C2CCN(CC2)[C@@H]1Cc1cccnc1)c1cccc(Br)c1	> 10	64		
CN(C)c1ccc(NC(=O)N[C@@H]2C3CCN(CC3)[C@@H]2Cc2cccnc2)cc1	> 10	38		
C/C(=C\C(=O)N[C@@H]1C2CCN(CC2)[C@@H]1Cc1cccnc1)c1ccccc1	> 10	87		
O=C(N[C@@H]1C2CCN(CC2)[C@@H]1Cc1cccnc1)c1csc(Br)c1	> 10	0.4		
O=C(Nc1ccc(Br)cc1)O[C@@H]1C2CCN(CC2)[C@@H]1Cc1cnc2ccccc2c1	> 10	10000		
O=C(Nc1ccccc1)O[C@@H]1C2CCN(CC2)[C@@H]1Cc1cccnc1	> 10			
O=C(N[C@@H]1C2CCN(CC2)[C@@H]1Cc1cccnc1)c1cc2ccccc2o1				1
C/C(=C\c1ccccc1)C(=O)N[C@@H]1C2CCN(CC2)[C@@H]1Cc1cccnc1	> 10	5		
O=C(Nc1ccc(Br)cc1)OC1CN2CCC1CC2 (configuration not stated)	> 10			
CN(C)c1ccc(C[C@@H]2[C@H](OC(=O)Nc3ccc(Br)cc3)C3CCN2CC3)cc1	> 10			
COc1cccc(NC(=O)N[C@@H]2C3CCN(CC3)[C@@H]2Cc2cccnc2)c1	> 10	43		
O=S(=O)(N[C@@H]1C2CCN(CC2)[C@@H]1Cc1cccnc1)c1ccc(Br)cc1	> 10			
CSc1ccc(NC(=O)N[C@@H]2C3CCN(CC3)[C@@H]2Cc2cccnc2)cc1	> 10	6		
O=C(Nc1ccc(Cl)c(Cl)c1)N[C@@H]1C2CCN(CC2)[C@@H]1Cc1cccnc1	> 10	34		
